The text below walks through data of PubChem BioAssay AID608 (Sanford-Burnham Center for Chemical Genomics, 2007).

Structures are written as SMILES. Active and inactive are the calls of the source. The rule behind the calls is not given here.

The target in the assay is Peptidyl-prolyl cis-trans isomerase FKBP1A (Homo sapiens) (UniProt P62942). Kind of assay: FKBP12 binders, biophysical, NMR detection (AID 608). To be noted: NMR binding, purified FKBP12.
Chain of Peptidyl-prolyl cis-trans isomerase FKBP1A (Homo sapiens) (P62942 whole entry, looked up): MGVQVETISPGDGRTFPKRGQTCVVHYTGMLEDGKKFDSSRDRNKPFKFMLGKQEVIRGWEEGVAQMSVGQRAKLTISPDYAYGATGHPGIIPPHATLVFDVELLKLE
`CCCOn1nnnc1-c1ccccc1`: the Kd was > 4 mM (inactive). As for `CC1=C/C(=C\c2c(O)[nH]c(=O)[nH]c2=O)C(C)=N1`, the Kd was > 4 mM (inactive). The value for `NCCc1nc2ccccc2[nH]1` was > 4 mM (inactive); that for `CC(=O)Nc1cccc(-c2nnc3n2CC(C)S3)c1` (configuration not stated) was > 4 mM (inactive); that for `COC(=O)c1cccc(C(F)(F)F)c1` was > 4 mM (inactive).

For the molecule `C=C1CCC(=O)C(C)CCC2C1CC2(C)C` (configuration not stated), the Kd is > 4 mM (inactive). In the case of `O=C(O)c1ccc2c(c1)OCCO2`, the Kd was > 4 mM (inactive). The value for `Cc1nc(-c2ccccc2)sc1C(N)=O` was > 4 mM (inactive); that for `O=C(O)C(O)C(O)C(O)C(O)C(=O)O` (configuration not stated) was > 4 mM (inactive); that for `O=[N+]([O-])c1cccc2c1nnn2C(CO)OCCO` (configuration not stated) was > 4 mM (inactive).

In the case of `Cc1cc(C)n(S(=O)(=O)c2ccc(C(C)(C)C)cc2)n1`, the Kd is > 4 mM (inactive). With `Nc1cc(F)nc(F)n1`, the Kd was > 4 mM (inactive).

Regarding `Fc1ccc(Br)cc1/C=N/n1cnnc1`, the Kd was > 4 mM (inactive). Regarding `NC(=O)c1sc2ccccc2c1Cl`, the Kd is > 4 mM (inactive). Consider `O=C(c1cc2ccccc2o1)N1CCOCC1`, for which the Kd entry was “inactive”.

With `CNC(=O)C(=O)NCc1ccc(C)cc1`, the Kd was > 4 mM (inactive). For the molecule `O=C(Nc1cccnc1)c1cccs1`, the Kd is > 4 mM (inactive). Consider `Cc1cc(C(=O)N2CCN(c3ccccn3)CC2)no1`, for which the Kd was > 4 mM (inactive).

As to `CC(=O)Nc1nnc(-c2ccc(Cn3c(-c4cscn4)nc4ccccc43)cc2)s1`, the Kd result is “inactive”. For the molecule `CCN1CCN(c2ncnc3c2nnn3C)CC1`, the Kd is > 4 mM (inactive). Regarding `Cc1occc1C(=O)Nc1sccc1C(N)=O`, the Kd is > 4 mM (inactive). As for `CC(=O)/C=C\[C@@H]1[C@@]2(C)CCCC(C)(C)C2CC[C@@]1(C)O` (some centres not stated), the Kd is > 4 mM (inactive). Regarding `CN1CCc2c(sc(N)c2C#N)C1`, the Kd was > 4 mM (inactive).

As for `COc1cc2c(cc1OC)C1(O)C(=O)c3ccc(O)c(C(=O)O)c3OC1CO2` (configuration not stated), the Kd was > 4 mM (inactive).

As for `CNC(=O)C1CCCN(S(C)(=O)=O)C1` (configuration not stated), the Kd was > 4 mM (inactive). Take `CCOc1ccc(-c2n[nH]c(=S)n2C)cc1`: the Kd is > 4 mM (inactive). Regarding `NC(=O)CNC(=O)c1ccccc1`, the Kd was > 4 mM (inactive). The value for `COc1ccc(-c2c(OC)c3c(OC)c4c(cc3oc2=O)OC(C)(C)C=C4)cc1` was > 4 mM (inactive).

In the case of `Cc1cc(=O)n2[nH]c(N)nc2n1`, the Kd is > 4 mM (inactive).

Consider `CCOC(=O)c1ccc(Oc2ccc(C)nn2)cc1`, for which the Kd was > 4 mM (inactive). Turning to `CC(=O)Nc1ccc2c(c1)CCCC2=O`, the Kd was > 4 mM (inactive). For `Cc1nc2ccccc2n1S(=O)(=O)N1CCCCC1`, the Kd result was “inactive”. To `O=C(O)c1ccc2occc2c1` belongs > 4 mM (inactive); to `c1ccc(-c2nnc3sc(-c4ccncc4)nn23)cc1`, > 4 mM (inactive). In the case of `COc1nc(C#N)c(N2CCOCC2)o1`, the Kd was > 4 mM (inactive). For `O=C(Nn1cnnc1)c1cccc(C(F)(F)F)c1`, the Kd was > 4 mM (inactive). For the molecule `O=C1c2ccc(F)cc2C(=O)N1CO`, the Kd was > 4 mM (inactive). In the case of `CN1CCN(C(=O)Nc2cccc3ccccc23)CC1`, the Kd is > 4 mM (inactive). `Cc1nc2ccccc2c2c1C(=O)N(C)C2=O`: the Kd was > 4 mM (inactive).

For `CC1=C(C(N)=O)C(c2ccco2)C(C(N)=O)=C(C)N1`, the Kd was > 4 mM (inactive). The value for `O=C(O)c1cc(O)c2c(c1)C(=O)c1cc(O)cc(O)c1C2=O` was > 4 mM (inactive); that for `NC(=O)CS(=O)(=O)c1ccc(Cl)cc1` was > 4 mM (inactive).

The Kd is the constant that tells how readily two partners part at equilibrium.
